Test results from a melting point compilation (Tetko et al.; mined from patent text by program, amines drawn as free bases though some values may be those of a salt).

SMILES | melting point [°C]
CC(=O)NCCCC(=O)NCCCC(=O)c1ccc(Cl)cc1CCC(=O)O | 108
Cc1cccc(N(c2cccc(C)c2)c2c(N(c3cccc(C)c3)c3cccc(C)c3)c3ccccc3c3ccccc23)c1 | 223 to 224
CC(=O)OC1C(N2CCCCC2)CC2C3CCC4CC(O)C(N5CCOCC5)CC4(C)C3CCC21C (stereo not given) | 177 to 184
CCC(=O)N1CCC(C(=O)O)CC1 | 91 to 94
CCOC(=O)c1ccc(NC(=O)C=C(c2ccc(OC)cc2)c2ccc(OC)cc2)cc1 | 156 to 159
COc1ccc(C2=NN(c3nc(C)ccc3C(F)(F)F)C(=O)C3CC=CCC23)cc1Cl (stereo not given) | 156 to 157
Cc1ccc(NC(=O)N(Cc2ccccc2)Cc2ccccc2)c(C)c1 | 124 to 126
O=C(O)CC[C@H](NC(=O)Nc1ccc(N(CCCl)CCCl)cc1)C(=O)O | 116 to 118
O=C(N[C@@H]1C2CCN(CC2)[C@H]1Cc1cccnc1)c1cc2ccccc2o1 | 134 to 139
COc1c(-c2cc3c(s2)CCC(C)(C)C3O)ccc2c(=O)c(C(=O)O)cn(C3CC3)c12 (stereo not given) | 93 to 94
[N-]=[N+]=NC1CC(n2cc(C(I)=CI)c(=O)[nH]c2=O)OC1COC(c1ccccc1)(c1ccccc1)c1ccccc1 (stereo not given) | 139
CC(=C1SC(=O)NC1=O)c1ccc(OCCCOc2c(-c3ccc(F)cc3)n(C)c3ccccc3c2=O)c(Cl)c1 | 232 to 234
CN(SN(CC#N)CC#N)C(=O)Oc1cccc2c1OC(C)(C)C2 | 94 to 95
CN1CCN(c2cccc3c2C[C@H](NC(=O)c2ccc(N4CCCCC4)cc2)CO3)CC1 | 178 to 180
CN(Cc1cc2ccccc2n1C)C(=O)/C=C/c1ccc(NC(=O)CCC(N)=O)nc1 | 225 to 227
CCCCCCc1cc2c(s1)-n1c(C)nnc1CN=C2c1ccccc1OC | 128 to 130
CC(C)(C)OC(=O)N[C@H](c1ccc(Cl)cc1)[C@H](c1ccc(Cl)cc1)[N+](=O)[O-] | 172 to 174
COc1cc(C(=O)N2CCN(C(=O)OC(C)(C)C)C(CO)C2)cc(OC)c1OC (stereo not given) | 119 to 120
O=C(O)c1ccc(-c2cnc3c(c2)N(Cc2cc(F)ccc2F)C(=O)CN3)cc1 | > 300
CCCCCCCCCCCCc1nnn(CC(=O)Nc2c(OC)cc(OC)cc2OC)n1 | 144 to 146
COCCNC(=O)c1cccc(-c2cccc3cc(C(C)(O)c4cccc(C(F)(F)F)c4)sc23)c1 (stereo not given) | 134 to 138
COC1CCC(O)C(COS(=O)(=O)c2ccc(C)cc2)O1 (stereo not given) | 100 to 102
O=C(CCC(O)c1ccccc1)N1CCCCC1 (stereo not given) | 42 to 44
O=C(O)CCCCCc1c([N+](=O)[O-])cc(O)c(O)c1[N+](=O)[O-] | 120 to 127
Cn1ccc2c1CC(C(=O)OCc1ccccc1)C1C(=O)NC(=O)C21 (stereo not given) | 189 to 193
COc1ccc(CCN2CCC(Cc3nc4ncnc(O)c4n3Cc3ccc(F)cc3)CC2)cc1 | 122

SMILES | melting point [°C]
CN1C=C2C=C(S)N=CN2N1 | > 300
CC[C@H](C)[C@H](NC(=O)NCc1ccccc1)C(=O)N[C@H](CO)Cc1c[nH]c2ccccc12 | 132 to 133
Cc1cc(C)c(C2C(=O)N(C)C3(CCN(N(C)C)CC3)C2=O)c(C)c1 (stereo not given) | > 195
CCOc1cc(N)c(Cl)cc1C(=O)NC[C@H]1CN(CC2CCN(C(=O)N3CCC3)CC2)CCO1 | 166 to 168
CC(=O)C1(C)CCCS1(=O)=O (stereo not given) | 47 to 48
CC(C)(CF)C(O)(Cn1ncnc1S)C(Cl)=CCl (stereo not given) | 162 to 164
CCn1cc(C(=O)O)c(=O)c2c(F)c(F)c(N3CCNC(c4ccsc4)C3)c(F)c21 (stereo not given) | 221 to 222
Cc1cc(C)c2c(c1C)NC(C)(CCCC(C)CCCC(C)CCCC(C)C)CC2 (stereo not given) | 72 to 73
O=CN(O)[C@@H](CN1C(=O)CNC1=O)CS(=O)(=O)c1ccc(Oc2ccc(OC(F)(F)F)cc2)cc1 | 154
Cc1ccc(S(=O)(=O)OC2CON(C(=O)OC(C)(C)C)C2)cc1 (stereo not given) | 63 to 65
CC(C)(C)c1cc(NS(C)(=O)=O)cc(C(C)(C)C)c1O | 149 to 151
CCOC(=O)Cc1ccc(NC(=O)C(COS(C)(=O)=O)NS(=O)(=O)c2ccc(Cl)cc2)cc1 (racemic) | 142 to 143
CC(C(=O)c1cccc(OCc2ccccc2)c1)N1CCC(n2c(=O)[nH]c3ccccc32)CC1 (stereo not given) | 138 to 140
COC1=C(CCO)C(=O)C(OC)=C(CCCCCC2=C(OC)C(=O)C(CCO)=C(OC)C2=O)C1=O | 97 to 99
CCON=C(C(=O)OCC)c1csc(N)n1 | 129
COc1cc(OC)cc(-c2cc(=O)c3ccc(OCC(O)CNC(C)C)cc3o2)c1 (stereo not given) | 155 to 156
CCOC(=O)c1c(OC)cc(C(F)(F)F)nc1C(F)(F)F | 58.5 to 59.5
COc1cc(C(C)(C)O)c(O)c2c1C(C)(C)CCC2(C)C | 140
O=C(Cc1ccccc1)NC1C(=O)N2C1SC1(CCN(Cc3ccccc3)CC1)C2C(=O)OCc1ccccc1 (stereo not given) | 130 to 131
O=C(Nc1ccc(OCCO)cc1)c1ccc(N2CCNCC2)cc1 | > 260
CCOC(=O)C1(c2ccccc2)CCN(C2CCC(C#N)(c3ccc(F)cc3C)CC2)CC1 (stereo not given) | 135
O=C(O)c1cn(CCO)c2c(F)c(N3CCn4ccnc4C3)c(F)cc2c1=O | 253 to 255
CC1(C2CCCC2)Cc2cc(OCCCC(=O)O)c(Cl)c(Cl)c2C1=O (stereo not given) | 154
COc1ccc(C)cc1NC(=O)Nc1ccc(N2CCN(C(=O)Nc3cc(OCCO)ccc3Cl)CC2)cc1 | 121 to 124
Cc1cc(Cc2cnc(N[N+](=O)[O-])[nH]c2=O)cnc1C | 212 to 213
Cc1onc(-c2ccccc2)c1C(=O)NCCCN1CCN(c2cc(F)ccc2OCC(F)(F)F)CC1 | 123 to 125

More lines, now with the values ahead:

melting point [°C] | SMILES
172 to 176 | CC(C)c1ccc(-c2ccc(-c3cccc(C(=O)O)c3)o2)cc1
174 to 176 | O=C(O)CC1(c2ccc(F)cc2)CNC(=O)C1 (stereo not given)
> 300 | Cn1nnc2c(N)cc3nc(O)c(O)nc3c21
163 to 165 | COc1cccc2c1C(=O)C(c1c(Cl)cccc1Cl)C2=O (stereo not given)
48 | CC1(C)CCSc2cccc(O)c21
240 to 241 | CCOC(=O)C1=CNC2=C(C(=O)Nc3ccccc3)CCN2C1=O
188 to 189 | NNC1=NCc2c[nH]c3cccc1c23
126 to 129 | CC(=O)N1CCN(c2ccc(N)c(C)c2)CC1
199 to 204 | O=C(O)c1cn(-c2ccc(F)cc2)c(-c2ccc(Cl)cc2)cc1=O
294 | NS(=O)(=O)c1ccc(-c2noc(-c3cnn4c(C(F)(F)F)cc(-c5ccc(Cl)cc5)nc34)n2)s1
136 | CC(C)(C)c1c(OCc2ccccc2)ccc2oc(C=O)cc12
> 280 | NNc1nc(Cl)nc2ccc(Cl)cc12
125 to 126 | COc1cc(C(C)=O)cc(C#N)c1OC
255 to 258 | Cc1cc2c(F)c(Oc3cc(Cl)nc(N)n3)ccc2[nH]1
284 | Cc1nc(NC(=N)N)sc1C(=O)Nc1cccc(OCC(=O)O)c1
162 to 164 | O=C(O)Cc1cccc(Oc2ccccc2Cl)c1[N+](=O)[O-]
54 to 57 | C=Cc1ccc2c(n1)COC(c1ccccc1)O2 (stereo not given)
196 to 198 | Cc1nc(COc2ccc3c(c2)c(SC(C)(C)C)c(CC(C)(C)C(=O)O)n3Cc2ccc(Cl)cc2)cs1
118 to 120 | O=[N+]([O-])c1cc(Br)ccc1NCC(F)(F)F
135 to 136 | CCC1(CC(=O)O)OCCc2c1[nH]c1ccccc21 (stereo not given)
156 to 158 | O=C(Nc1ccc(Cl)c(Cl)c1)NS(=O)(=O)c1ccc2c(c1)CCC2
156 to 157 | Cc1cc(CCCOc2c(C)cc(C(=O)O)cc2C)on1
75 to 77 | COC(=O)c1nc(Cl)c(F)c(N)c1SC
64 to 66 | O=C(c1ccccc1Cl)c1cc(Cl)ccc1I

melting point [°C] | SMILES
90 | C#CCCCNC(=O)C(c1ccccc1)c1ccccc1
155 | CS(=O)(=O)c1ccc2c(c1)C(=O)CC2
54 | O=C1c2ccsc2CCN1Cc1ccccc1
286 to 287 | CCOC(=O)c1c[nH]c2nc(NCc3ccc(Br)cc3)nn2c1=O
106 | CC(=O)c1cccc2cc3ccccc3cc12
155 to 157 | Nc1c(-c2ccccc2)nn2ccccc12
60 | O=C(OCc1c(F)c(F)nc(F)c1Cl)c1ccccc1
86.5 to 87.5 | Cc1cc(C(=O)OC(C)(C)C)cc(C(=O)OC(C)(C)C)c1
128 to 130 | Nc1c(C(=O)c2ccccc2)[nH]c2cc(Cl)ccc12
221 to 222 | Cc1ccc2nc(-c3ccc([N+](=O)[O-])cc3)c(CNC(=O)CC(C)C)n2c1
157 to 158 | S=C(Nc1ccccc1Br)c1ccccc1
215 to 217 | NS(=O)(=O)c1cccc2c1S(=O)(=O)CC2
233 to 235 | Nc1ccc(Oc2c(NCc3ccco3)cc(C(=O)O)cc2S(N)(=O)=O)cc1
192 to 195 | O=C(Cc1ccc(C(=O)O)cc1)C(=O)c1ccccc1
265 to 266 | CC1(N2C(=O)c3cccc([N+](=O)[O-])c3C2=O)CCC(=O)NC1=O (stereo not given)
113 to 114 | Cc1nn(C)cc1C(=O)NC(C#N)c1ccsc1 (stereo not given)
198 to 199 | COc1cccc(C(=O)N2CCc3cc(O)c(OC)cc3C2=O)c1
250 to 251 | O=C(c1c[nH]c2cc(C(F)(F)F)ccc12)C(F)(F)F
162 to 164 | COc1cc(Nc2nccc(-c3cccc(NC(C)=O)c3)n2)cc(OC)c1OC
228 to 231 | O=S1(=O)NC(C2CC2)Nc2ccc(S(=O)(=O)N3CCCCC3)cc21 (stereo not given)
136 | CC(C)(C)OC(=O)NCc1ccccc1-c1ccccc1C(=O)O
167 to 170 | NC1=NC=C(c2ccc(C(F)(F)F)cc2)c2ccccc2C1
176 to 178 | NC(=O)N1CC(Oc2ccc(C(F)(F)F)cc2)C1
74 to 79 | N#CSc1ccc(N)c(Br)c1
